One test has as its target T1, full-length human PHD3 (Homo sapiens, UniProt Q9H6Z9).
T1 construct: 6-His (N); purchased Active Motif 81033; host or cells: E. coli
Put plainly: TR-FRET assay, enzymatic IC50 against PHD3. Note: 35 nM PHD3. It is filed as biochemical. An excerpt:
Recombinant human PHD3 protein (molecular weight 31.1 kDa) was purchased from Active Motif (Carlsbad, Calif., USA). It was expressed in E. coli as the full-length protein (NCBI accession number NP_071356.1) with an N-terminal 6-His tag (catalog #81033, Lot #24417001).

The next test has as its target full-length human PHD2 (Homo sapiens, UniProt Q9GZT9). Put plainly: TR-FRET assay, enzymatic IC50 against PHD2.
The target of the next test is T2, full-length human PHD1 (Homo sapiens, UniProt Q96KS0).
T2 construct: FLAG (N); purchased Active Motif 81064; host or cells: baculovirus expression system
T2 sequence (Q96KS0 whole entry): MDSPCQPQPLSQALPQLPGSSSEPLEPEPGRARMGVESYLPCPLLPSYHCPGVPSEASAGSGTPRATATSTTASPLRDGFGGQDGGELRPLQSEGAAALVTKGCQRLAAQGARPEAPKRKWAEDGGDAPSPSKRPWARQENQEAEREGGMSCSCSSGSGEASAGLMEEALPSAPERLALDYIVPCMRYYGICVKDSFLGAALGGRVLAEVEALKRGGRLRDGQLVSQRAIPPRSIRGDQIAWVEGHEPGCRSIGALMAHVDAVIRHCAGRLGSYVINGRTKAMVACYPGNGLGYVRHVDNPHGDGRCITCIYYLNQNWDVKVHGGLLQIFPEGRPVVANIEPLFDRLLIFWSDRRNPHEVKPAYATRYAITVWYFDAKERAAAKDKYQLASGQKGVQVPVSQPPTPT
Put plainly: TR-FRET assay, enzymatic IC50 against PHD1. Note: 15 nM PHD1. Format: biochemical. An excerpt:
PHD1 was expressed in a baculovirus expression system as the full-length protein (NCBI accession number NP_542770.2) with an N-terminal FLAG tag (molecular weight 44.9 kDa).

Molecules are shown by their SMILES.

Sequence of full-length human PHD2 (Q9GZT9 whole entry): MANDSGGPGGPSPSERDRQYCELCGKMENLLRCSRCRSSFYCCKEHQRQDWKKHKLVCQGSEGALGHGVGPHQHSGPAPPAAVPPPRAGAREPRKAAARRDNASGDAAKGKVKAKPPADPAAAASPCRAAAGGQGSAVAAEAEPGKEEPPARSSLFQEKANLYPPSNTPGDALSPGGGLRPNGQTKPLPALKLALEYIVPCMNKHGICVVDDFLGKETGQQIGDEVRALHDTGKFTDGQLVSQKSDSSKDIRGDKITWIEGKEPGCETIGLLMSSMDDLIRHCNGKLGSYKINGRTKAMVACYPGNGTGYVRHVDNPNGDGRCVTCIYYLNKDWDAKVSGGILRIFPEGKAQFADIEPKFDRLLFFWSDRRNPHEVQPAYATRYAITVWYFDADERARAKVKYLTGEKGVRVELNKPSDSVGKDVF
T1 sequence (Q9H6Z9 whole entry): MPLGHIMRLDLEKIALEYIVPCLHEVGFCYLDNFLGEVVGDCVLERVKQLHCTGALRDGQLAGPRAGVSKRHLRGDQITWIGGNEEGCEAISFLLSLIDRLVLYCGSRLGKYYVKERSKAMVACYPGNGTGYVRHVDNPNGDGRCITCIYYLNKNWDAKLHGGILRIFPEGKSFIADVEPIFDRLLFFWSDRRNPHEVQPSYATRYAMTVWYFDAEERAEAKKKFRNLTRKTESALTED
Excerpt for full-length human PHD2: Time-resolved fluorescence resonance energy transfer (TR-FRET) assay was utilized to determine the enzymatic half maximal inhibitory concentration (IC50) value of PHD inhibitors against the full-length human prolyl-4-hydroxylase domain (PHD) enzymes, PHD1, PHD2, and PHD3. The TR-FRET assay was developed based on the specific binding of hydroxylated HIF-1α peptide with the complex formed by VHL, EloB and EloC (VBC), to generate a fluorescent signal. Terbium (Tb)-Donor (monoclonal antibody anti-6His-Tb-cryptate Gold) and D2-acceptor (streptavidin [SA]-D2) of TR-FRET are linked to the VBC complex and to HIF-1α peptide, respectively. The VBC complex binds specifically to the HIF-1α peptide when it is hydroxylated, allowing energy transfer from TR-FRET donor to acceptor (FIG. 1). […] The plates were incubated for 30 minutes at room temperature without rotation. […] TR-FRET assays were performed in triplicate at each concentration of compound and the assays were repeated independently three times.

As to `Cc1nn(-c2ccc(S(C)(=O)=O)cn2)c(O)c1-c1ccc(Cl)cc1` [Compound 1, 4-(4-chlorophenyl)-3-methyl-1-(5-(methylsulfonyl)pyridin-2-yl)-1H-pyrazol-5-ol], the IC50 on full-length human PHD3 was 100 to 1000 nM; on full-length human PHD2, under 100 nM; against full-length human PHD1, under 100 nM.
In the case of `Cc1cc(C#N)ccc1-c1c(C)nn(-c2ccc(S(C)(=O)=O)cn2)c1O` [Compound 2, 4-(5-hydroxy-3-methyl-1-(5-(methylsulfonyl)pyridin-2-yl)-1H-pyrazol-4-yl)-3-methylbenzonitrile], the IC50 against full-length human PHD3, at full-length human PHD2 and against full-length human PHD1 was under 100 nM each time.
Take `Cc1nn(-c2ccc(S(C)(=O)=O)cn2)c(O)c1-c1ccc(C#N)cc1` [Compound 3, 4-(5-hydroxy-3-methyl-1-(5-(methylsulfonyl)pyridin-2-yl)-1H-pyrazol-4-yl)benzonitrile]: the IC50 against full-length human PHD3, against full-length human PHD2 and against full-length human PHD1 was under 100 nM in each case.
As to `CCc1nn(-c2ccc(S(C)(=O)=O)cn2)c(O)c1-c1ccc(C#N)cc1` [Compound 4, 4-(3-ethyl-5-hydroxy-1-(5-(methylsulfonyl)pyridin-2-yl)-1H-pyrazol-4-yl)benzonitrile], the figures for the IC50 against full-length human PHD3, on full-length human PHD2 and on full-length human PHD1 were 1000 to 10000 nM, under 100 nM and under 100 nM, respectively.
Consider `CS(=O)(=O)c1ccc(-n2nc(C3CC3)c(-c3ccc(C#N)cc3)c2O)nc1` [Compound 5, 4-(3-cyclopropyl-5-hydroxy-1-(5-(methylsulfonyl)pyridin-2-yl)-1H-pyrazol-4-yl) benzonitrile], for which the IC50 at full-length human PHD3 is over 10000 nM; on full-length human PHD2, 1000 to 10000 nM; at full-length human PHD1, 100 to 1000 nM.
The corresponding values for `Cc1nn(-c2ccc(NS(C)(=O)=O)cn2)c(O)c1-c1ccc(C#N)cc1` [Compound 6, N-(6-(4-(4-cyanophenyl)-5-hydroxy-3-methyl-1H-pyrazol-1-yl)pyridin-3-yl) methanesulfonamide] are under 100 nM, under 100 nM and under 100 nM.
For `Cc1nn(-c2ccc(N3CCCC3=O)cn2)c(O)c1-c1ccc(C#N)cc1` [Compound 7, 4-(5-hydroxy-3-methyl-1-(5-(2-oxopyrrolidin-1-yl)pyridin-2-yl)-1H-pyrazol-4-yl)benzonitrile], the IC50 is 100 to 1000 nM against full-length human PHD3, under 100 nM on full-length human PHD2 and under 100 nM at full-length human PHD1.
For the molecule `Cc1nn(-c2ccc(S(=O)(=O)c3ccccc3)cn2)c(O)c1-c1ccc(C#N)cc1` [Compound 8, 4-(5-hydroxy-3-methyl-1-(5-(phenylsulfonyl)pyridin-2-yl)-1H-pyrazol-4-yl)benzonitrile], the IC50 is 100 to 1000 nM against full-length human PHD3, under 100 nM on full-length human PHD2 and under 100 nM against full-length human PHD1.
For the molecule `CCC(=O)Nc1ccc(-n2nc(C)c(-c3ccc(C#N)cc3)c2O)nc1` [Compound 9, N-(6-(4-(4-cyanophenyl)-5-hydroxy-3-methyl-1H-pyrazol-1-yl)pyridin-3-yl)propionamide], the IC50 against full-length human PHD3 is 100 to 1000 nM; against full-length human PHD2, under 100 nM; at full-length human PHD1, under 100 nM.
On to `Cc1nn(-c2ccc(C(=O)C(C)C)cn2)c(O)c1-c1ccc(C#N)cc1` [Compound 10, 4-(5-hydroxy-1-(5-isobutyrylpyridin-2-yl)-3-methyl-1H-pyrazol-4-yl)benzonitrile], for which the IC50 at full-length human PHD3 is 100 to 1000 nM; against full-length human PHD2 it was under 100 nM; on full-length human PHD1, under 100 nM.
As for `Cc1nn(-c2ccc(S(N)(=O)=O)cn2)c(O)c1-c1ccc(C#N)cc1` [Compound 11, 6-(4-(4-cyanophenyl)-5-hydroxy-3-methyl-1H-pyrazol-1-yl)pyridine-3-sulfonamide], the IC50 at full-length human PHD3, on full-length human PHD2 and against full-length human PHD1 was under 100 nM in each case.
Consider `Cc1nn(-c2ccc([S+](C)[O-])cn2)c(O)c1-c1ccc(C#N)cc1` (stereo not drawn) [Compound 12, 4-(5-hydroxy-3-methyl-1-(5-(methylsulfinyl)pyridin-2-yl)-1H-pyrazol-4-yl)benzonitrile], for which the IC50 at full-length human PHD3, against full-length human PHD2 and against full-length human PHD1 was under 100 nM in each case.
`Cc1nn(-c2ccc(S(C)(=N)=O)cn2)c(O)c1-c1ccc(C#N)cc1` (stereo not drawn) [Compound 13, 4-(5-hydroxy-3-methyl-1-(5-(S-methylsulfonimidoyl)pyridin-2-yl)-1H-pyrazol-4-yl)benzonitrile]: the half-inhibitory concentration (IC50) against full-length human PHD3 was 100 to 1000 nM; on full-length human PHD2, under 100 nM; against full-length human PHD1, under 100 nM.
Consider `CN=S(C)(=O)c1ccc(-n2nc(C)c(-c3ccc(C#N)cc3)c2O)nc1` (stereo not drawn) [Compound 15, 4-(1-(5-(N,S-dimethylsulfonimidoyl)pyridin-2-yl)-5-hydroxy-3-methyl-1H-pyrazol-4-yl)benzonitrile], for which the IC50 at full-length human PHD3, against full-length human PHD2 and at full-length human PHD1 was under 100 nM each time.
For the molecule `Cc1nn(-c2ccc(C(=O)NS(C)(=O)=O)cn2)c(O)c1-c1ccc(C#N)cc1` [Compound 27, 6-(4-(4-cyanophenyl)-5-hydroxy-3-methyl-1H-pyrazol-1-yl)-N-(methylsulfonyl)nicotinamide], the IC50 on full-length human PHD3, on full-length human PHD2 and against full-length human PHD1 was under 100 nM throughout.
Take `Cc1nn(-c2ccc([S@](=N)(=O)C3CC3)cn2)c(O)c1-c1ccc(Cl)cc1` [Compound 66, (R)-(6-(4-(4-chlorophenyl)-5-hydroxy-3-methyl-1H-pyrazol-1-yl)pyridin-3-yl)(cyclopropyl)(imino)-λ^6-sulfanone]: the IC50 against full-length human PHD2 and against full-length human PHD1 was under 100 nM each time.
As to `Cc1nn(-c2ccc(NS(C)(=O)=O)cn2)c(O)c1-c1ccc(Cl)cc1` [Compound 67, N-(6-(4-(4-chlorophenyl)-5-hydroxy-3-methyl-1H-pyrazol-1-yl)pyridin-3-yl)methanesulfonamide], the IC50 against full-length human PHD2 and on full-length human PHD1 was under 100 nM each time.
For `Cc1cc(-n2nc(C)c(-c3ccc(C#N)cc3)c2O)ncc1[S@@](=N)(=O)C1CC1` [Compound 68, (S)-4-(1-(5-(cyclopropanesulfonimidoyl)-4-methylpyridin-2-yl)-5-hydroxy-3-methyl-1H-pyrazol-4-yl)benzonitrile], the IC50 against full-length human PHD2 and at full-length human PHD1 was under 100 nM in each case.
Consider `Cc1cc(-n2nc(C)c(-c3ccc(C#N)cc3)c2O)ncc1[S@](=N)(=O)C1CC1` [Compound 69, (R)-4-(1-(5-(cyclopropanesulfonimidoyl)-4-methylpyridin-2-yl)-5-hydroxy-3-methyl-1H-pyrazol-4-yl)benzonitrile], for which the IC50 against full-length human PHD2 and on full-length human PHD1 was under 100 nM throughout.
`Cc1cc(-n2nc(C)c(-c3ccc(C#N)cc3)c2O)ncc1S(=O)(=O)Nc1ccccc1` [Compound 70, 6-(4-(4-cyanophenyl)-5-hydroxy-3-methyl-1H-pyrazol-1-yl)-4-methyl-N-phenylpyridine-3-sulfonamide]: the IC50 on full-length human PHD2 was 100 to 1000 nM; against full-length human PHD1 it was under 100 nM.
Taken in the same sequence, the figures for `Cc1cc(-n2nc(C)c(-c3ccc(C#N)cc3)c2O)ncc1S(=O)(=O)NC1CC1` [Compound 71, 6-(4-(4-cyanophenyl)-5-hydroxy-3-methyl-1H-pyrazol-1-yl)-N-cyclopropyl-4-methylpyridine-3-sulfonamide] were under 100 nM and under 100 nM.

The record behind these values is patent US20230159489A1, “PHD INHIBITOR COMPOUNDS, COMPOSITIONS, AND USE” (Akebia Therapeutics, Inc., priority 2020, published 2023).
